Experimental data as given in PMC10587737, “Dracorhodin targeting CMPK2 attenuates inflammation: A novel approach to sepsis therapy” (Clinical and Translational Medicine, 2023).

Legend:
CMPK2 [1] = target: T1, CMPK2 (Homo sapiens, UniProt Q5EBM0); assay: Ultrafiltration-affinity mass spectrometry screening (FC, CMPK2 vs BSA); type: binding; design: the N‐terminus was truncated by 22 amino acids; 6xHis (C); made in house; host or cells: FreeStyle 293-F cells (pTT5 vector); settings: ratio of MS response CMPK2 vs BSA; for FC Positive: positive ion mode; for FC Negative: negative ion mode
T1 sequence (Q5EBM0 22-449): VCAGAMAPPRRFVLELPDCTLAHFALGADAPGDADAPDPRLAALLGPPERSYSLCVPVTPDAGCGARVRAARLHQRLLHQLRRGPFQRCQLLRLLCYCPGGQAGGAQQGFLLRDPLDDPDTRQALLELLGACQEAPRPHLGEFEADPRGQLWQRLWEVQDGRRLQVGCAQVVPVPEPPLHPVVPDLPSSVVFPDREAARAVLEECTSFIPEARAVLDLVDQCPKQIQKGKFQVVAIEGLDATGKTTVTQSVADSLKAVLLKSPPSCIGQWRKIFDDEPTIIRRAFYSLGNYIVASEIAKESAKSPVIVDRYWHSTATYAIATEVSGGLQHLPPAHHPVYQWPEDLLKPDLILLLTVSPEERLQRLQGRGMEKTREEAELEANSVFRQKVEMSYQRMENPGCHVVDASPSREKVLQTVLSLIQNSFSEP
Description: The purified kinase CMPK2 was incubated with the six cocktails for 30 min at 37°C in a suitable buffer solution. In the compound cocktail, each compound concentration was 1 μM, and the concentration of the kinase CMPK2 was set at 5 μM. Each of the above incubation solutions was added to a 0.5 mL 10 kDa ultrafiltration tube (Amicon μltra‐0.5 10K Centrifugal Filter Devices, Millipore), and four experimental replicates were conducted for each CMPK2 and BSA pair. The 10 kDa ultrafiltration tube was centrifuged with the incubation solution at 13 000 × g for 20 min at 4°C. Centrifugation was stopped when the solution volume was approximately 100 μL, and then the mixture was washed five times with cold ammonium acetate (150 mM, pH 7.5). For affinity selection, 100 μL of the mixture was transferred after centrifugation and rinsed into a new eppendorf tube. […] The protein precipitate was discarded and the liquid was concentrated with a N2 stream. The residue was re‐dissolved in 50% methanol before injection. BSA samples were processed in a manner parallel to that of CMPK2 samples.
Sample measurement was detected by using an UHPLC instrument (Shimadzu) combined with a Triple TOF 5600^+ MS (SCIEX). Chromatographic separation was conducted with an Acquity UPLC BEH C18 column (1.7 μm, 2.1 × 100 mm, Waters) at a temperature maintained at 40°C and a flow rate of 0.3 mL/min, with mobile phases of water–0.1% formic acid (A) and acetonitrile (B). The linear gradient elution profile was as follows: 0−2 min, 5% B; 2−12 min, 5−30% B; 12−25 min, 30−90% B; 25−30 min, 90% B; and re‐equilibration for 5 min. Subsequently, the gradient was recovered to the initial conditions at the final 1 min. Whether it was a test sample or a quality control (QC) sample, each injection volume was 5 μL.
Briefly, the chromatographic peaks of each bound ligand were extracted using PeakView with identification criteria of precise mass measurement deviation and retention time tolerance of 5 ppm and 0.1 min, respectively. The MS response of each ligand was represented with the integrated peak area extracted by the corresponding extract ion chromatogram. The effective hits were selected on the basis of fold change (FC) value ≥ 2, p value < .05 and cyclic voltammetry (CV) ≤ 30% and were identified as candidate ligands of CMPK2. By extracting the m/z of individual standards from the acquired MS/MS spectrum, the decimal point of RT was used to distinguish the ambiguous compound peaks in the cocktails.
The experimental samples were injected into a UHPLC‐Q‐TOF‐MS system. First, total ion chromatograms (TIC) reflected the general overview of all samples (Supporting Information Figure S2A). […] Among the groups, each sample with a CV more than 30% was considered an abnormal sample and was not considered in the subsequent statistical analysis. In addition, the p value of each sample between the groups was calculated by MetaboAnalyst 5.0, and the significance of differences was determined. In the ultrafiltration‐affinity mass spectrometry profiling, we calculated FC, which is defined as the ratio of the MS response between the compound detected in the CMPK2 and BSA incubation system (Supporting Information Figure S2C,D). […] To select small‐molecule ligands with strong affinity, we determined the screening criteria to be FC ≥ 2. Affinity MS analysis generated a set of raw data, and the compounds that met the pre‐judgment criteria (FC ≥ 2, p < .05) were selected as compound hits (Supporting Information Figure S2).

CMPK2 [2] = target: T1, CMPK2; assay: CMPK2 kinase activity assay (ADP-GLO); type: biochemical; settings: ligand concentration 10 μM, luminescence; for inhibition at 10 µM: read-out: CMPK2 inhibition
Description: The range of concentrations used to investigate the effect of small‐molecule ligands on CMPK2 activity was 0.1–150 μM. Each data point contains three biological replicates.
CMPK2 activity was measured by the ADP‐GLO kinase assay according to the guidelines specified in the manufacturer's instructions. In the activity assay, the amount of ADP formed in the CMPK2 reaction was equal to the ATP consumption and proportional to the increase in luminescence generated in the luciferase reaction, which is the experimental principle shown in Figure 1I.

Compound | FC Positive (CMPK2 [1]) | FC value (CMPK2 [1]; Figure S3A) | inhibition at 10 µM (CMPK2 [2]) [%] | FC Negative (CMPK2 [1]) | CMPK2 inhibition (CMPK2 [2])
O=c1ccn([C@H]2C[C@H](O)[C@@H](COP(=O)(O)O)O2)c(=O)[nH]1 [dUMP, reference compound] | 1.17 | 1.9 |  |  | 
COc1ccc2ccc(=O)oc2c1 [compound 792, 7-methoxy coumarin] | 3.13 |  | > 50 |  | 
O=c1c(O[C@@H]2O[C@H](CO)[C@H](O)[C@H](O)[C@H]2O)c(-c2ccc(O)c(O)c2)oc2cc(O)cc(O)c12 [compound 400, Hyperoside] | 4.74 |  | > 50 | 6.41 | 
CC(C)=CCCC(C)(O)[C@H]1CC[C@]2(C)[C@@H]1[C@H](O)C[C@@H]1[C@@]3(C)CC[C@H](O)C(C)(C)[C@@H]3CC[C@]12C (stereo in doubt) [compound 368, Protopanaxadiol] |  |  |  | 3.70 | more than 50%
